Patent publication US20240315991A1, “USES OF HNF4 ALPHA AGONISTS” (Sanford Burnham Prebys Medical Discovery Institute, priority 2023, published 2024)
Entries after “also recorded” stand apart in the source; their conditions may differ.

Assays:
[1] = system: total cellular nicotinamide adenine dinucleotide (NAD); assay: Nicotinamide adenine dinucleotide assay in liver lysate; type: in vivo, mouse; details: HFD+NCT vs HFD, 10 weeks
Protocol: (§1) NCT oral administration. Four-week-old male C57BL/6J (JAX cat #000664) mice were purchased from Jackson laboratory and were maintained in a 12 h light/dark cycle throughout the experiment. Prior to the experiments, mice were acclimated for 2 weeks. Six-week-old mice with similar body weights were randomized to a normal diet (NC), a high fat diet (HFD) (Research Diets, cat #D12492 60 kcal % fat) or HFD containing 4000 ppm NCT (HFD+NCT) (Research Diets, 60 kcal % fat+4000 ppm NCT), which was calculated to provide approximately 400 mg/kg/d NCT. HFD chow containing NCT was made with gray dye to distinguish it from regular HFD chow that had green dye. Mice for each treatment group were placed in separate cages. Equal amounts of fresh chow were provided every week to all mice. Body weight gain and food intake were measured every week for 10 weeks. After 10 weeks of chow treatment, mice were sacrificed for analysis. All animal experiments were approved by the Institutional Animal Care and Use Committee (IACUC) of the Sanford Burnham Prebys Medical Discovery Institute in accordance with national regulations. Sample size was chosen based on the prior study of NCT delivered by IP injection.
Nicotinamide adenine dinucleotide assay. Total NAD level in liver lysate was analyzed according to manufacturer's instructions using a calorimetric NAD+/NADH assay kit (Cat #MET-5014, Cell Biolabs, Inc. USA). […]

Sirt1 mRNA [2] = assay: RT-PCR of mouse liver, Sirtuin1; type: in vivo; details: HFD+NCT vs HFD, FIG. 4D
Protocol: as §1, with “All animal experiments were approved by the Institutional Animal Care and Use Committee (IACUC) of the Sanford Burnham Prebys Medical Discovery Institute in accordance with national regulations. Sample size was chosen based on the prior study of NCT delivered by IP injection.” left out
(§2) RT-PCR. […] Quantitative real time PCR (RT-PCR) analysis was performed using SYBR® Select Master Mix (Applied Biosystems) and an ABI 7900HT thermal cycler (Applied Biosystems, Thermo Fisher Scientific). Ct values were normalized to 18s rRNA and are expressed as fold change over samples from mice fed NC or cultured human hepatocytes without NCT.

[3] = system: mitochondrial fatty acid oxidation (FAO) activity; assay: Fatty acid oxidation assay in liver lysate; type: in vivo, mouse
Protocol: as §1
Fatty acid oxidation assay. FAO in liver lysate was measured according to manufacturer's instructions using a calorimetric assay kit (Cat #E-141, Biomedical Research Service Center, State University of New York, Buffalo, NY).
Thus, the effect of NCT on FAO appeared to be a secondary rather than primary effect.

TNFα mRNA = assay: RT-PCR of primary human hepatocytes, TNFα; type: cell-based; details: HEP-fat media, NCT 5, 15, and 40 μM, dose-responsive manner, FIG. 5F
Protocol: (§3) Primary human hepatocytes. Experiments with primary human hepatocytes were performed by CN-Bio (Cambridge, UK). Briefly, primary human hepatocytes (PHHs), human Kupffer cells (HKs) and human stellate cells (HSCs) were seeded onto CN-Bio's PhysioMimix LC12 MPS culture plates at 6×10^5 cells for PHHs and 6×10^4 cells for HKs and HSCs in 1.6 ml of CN-Bio's HEP-lean media with 5% FCS. Throughout the experiment the cells were maintained at a flow rate of 1 μl/s. After 24 hours (Day 1) of seeding, the media was changed to HEP-lean media and the cells were incubated until day 4 to allow the cells to form microtissues. At day 4 post seeding, media was changed to HEP-fat media and treated with DMSO or NCT (5, 15, and 40 μM). Media was replaced on days 6 and 8. Cells were harvested on day 10 for RNA extraction and culture media was collected for ELISA analysis.
as §2

[4] = cited from earlier work
SDHA mRNA = assay: RT-PCR of mouse liver, SDHA; type: in vivo; details: HFD+NCT vs HFD, FIGS. 3G and 3H
Protocol: as §1, with “All animal experiments were approved by the Institutional Animal Care and Use Committee (IACUC) of the Sanford Burnham Prebys Medical Discovery Institute in accordance with national regulations. Sample size was chosen based on the prior study of NCT delivered by IP injection.” left out
as §2

Sirt1 mRNA [5] = assay: RT-PCR of primary human hepatocytes, Sirtuin1; type: cell-based; details: HEP-fat media, NCT 5, 15, and 40 μM, FIG. 4G
Protocol: as §3, §2

IL-6 mRNA [6] = assay: RT-PCR of primary human hepatocytes, IL-6; type: cell-based; details: HEP-fat media, NCT 5, 15, and 40 μM, FIG. 5E
Protocol: as §3, §2

IL-6 mRNA [7] = assay: RT-PCR of mouse liver, IL-6; type: in vivo; details: HFD+NCT vs HFD, FIG. 5A
Protocol: as §1, with “All animal experiments were approved by the Institutional Animal Care and Use Committee (IACUC) of the Sanford Burnham Prebys Medical Discovery Institute in accordance with national regulations. Sample size was chosen based on the prior study of NCT delivered by IP injection.” left out
as §2

[8] = system: DNA encoding the mitochondrial genes 16s rRNA; assay: Mitochondrial DNA analysis of liver, 16s rRNA; type: in vivo; details: mouse liver, HFD+NCT vs HFD, FIG. 3L
Protocol: as §1
Quantification of mtDNA was performed. […]

cytochrome C mRNA = assay: RT-PCR of mouse liver, cytochrome C; type: in vivo; details: HFD vs. HFD+NCT, FIG. 3G
Protocol: as §1, with “All animal experiments were approved by the Institutional Animal Care and Use Committee (IACUC) of the Sanford Burnham Prebys Medical Discovery Institute in accordance with national regulations. Sample size was chosen based on the prior study of NCT delivered by IP injection.” left out
as §2

SDHA = assay: Western blotting of liver, SDHA; type: in vivo, mouse; details: HFD+NCT vs HFD, FIGS. 3D-3F
Protocol: as §1
Western blotting. Mouse liver extracts were prepared by incubation in RIPA buffer (Invitrogen) containing protease inhibitors (Calbiochem, SanDiego, CA). Protein was quantified by BCA assay (Thermo Scientific). […]

[9] = liver lysate, HFD+NCT vs HFD, 10 weeks

**Q.** Which results are given for `O=C(/C=C/c1ccc(O)c(O)c1)NCCc1ccc(O)cc1` [NCT, N-trans caffeoyltyramine]?
**A.** total cellular NAD in liver [1]: increased; also recorded: substantial increase; Sirt1 mRNA in mouse liver (Sirt1 mRNA [2]): reverse the depression; FAO activity in the presence of octanoyl CoA [3, 9]: increase; baseline FAO activity in the absence of octanoyl CoA [3, 9]: increase; overall FAO activity in the assay [3, 9]: unchanged; also recorded: non-significant; fatty acid oxidation ([3]; mice fed HFD containing NCT vs HFD alone): increased; TNFα mRNA level in cultured human hepatocytes (TNFα mRNA): decrease; oral bioavailability [4]: poor; SDHA mRNA in mouse liver (SDHA mRNA): increase; Sirt1 mRNA in primary human hepatocytes (Sirt1 mRNA [5]): reverse the depression; IL-6 mRNA level in cultured human hepatocytes (IL-6 mRNA [6]): decrease; IL-6 level in livers of mice on HFD (IL-6 mRNA [7]): decreased; IL-6 level in livers of mice on HFD (IL-6 mRNA [7]; listed as Compound A): decrease; level of DNA encoding the mitochondrial genes 16s rRNA [8]: increase; cytochrome C mRNA levels in mouse livers (cytochrome C mRNA): non-significant; SDHA protein level in liver (SDHA): reverse the depression
